Test results taken from US20260159474A1, “Aminoindane Compounds and Compositions and Methods of Their Therapeutic Use” (Solvonis Therapeutics Ireland Holdings Limited, priority 2021, published 2026).
Where two headings read alike, the source gives them in different places.

Tests used:
[1] = Plasma protein binding by equilibrium dialysis, rat plasma; format: in vitro ADME; details: for Rat Plasma (Fu %): fraction unbound, 0.5 μM; for fraction unbound at 5 h, 0.5 μM: male, Sprague Dawley, rat, plasma, pH 7.4, read-out: Rat Plasma (Fu %)
Protocol: Methods: Plasma protein binding and blood tissue binding of test items (0.5 μM) was determined using biological samples from male Sprague Dawley (SD) rats and humans. […] Dexamethasone was used as a control compound for lung tissue binding. Various biological samples were spiked with test compounds according to the methods that follow.
Preparation of plasma or blood samples: An appropriate amount of test compound was dissolved in DMSO to yield a 10 mM solution. Further dilutions, to obtain 50 μM working solutions (WS), were then prepared using 50% acetonitrile in Milli-Q water. These 100×WS were used to spike plasma or blood to obtain a final concentration of 0.5 μM. From this initial spiking solution, control samples (n=3), referred to as T=0, were immediately extracted and used to calculate the recovery of the test item.
An equilibrium dialysis method was performed to determine protein binding in the various biological samples described herein. Materials were prepared and methods were in accordance with the following procedures.
Membranes were prepared for use in the equilibrium dialysis experiment. by soaking in deionized water for at least 60 minutes. After this period, 20% of pure ethanol was added, and the membranes were left in this solution for at least 20 minutes. The membranes were then rinsed in Milli-Q water prior to use.
To initiate the experiment, 150 μL of test item-free buffer (isotonic phosphate buffer for plasma and blood, artificial CSF buffer for brain or HBSS buffer for lung) was dispensed on one half-well of a 96-well dialyzer apparatus (HTDialysis LLC), and 150 μL of spiked matrix (plasma, blood, brain or lung) was loaded on the other half-well. Alternative volumes may be used according to the operating instructions of HTDialysis.
Dialysis buffer was prepared by dissolving Na2HPO4 8.69 g, KH2PO4 1.90 g, and NaCl 4.11 g in […] of MilliQ water, and adjusting the pH to 7.4 with H3PO4. At the end of the equilibration period (device is sealed and incubated under shaking for 5 hours at 37° C.), 50 μL of dialysed matrix will be added to 50 μL of corresponding test item free dialysed buffer, and vice versa for buffer, such that the volume of buffer to matrix will be the same. Samples were extracted by protein precipitation with 300 μL of acetonitrile containing rolipram (for positive ionization mode) or diclofenac (for negative ionization mode) as internal standard and centrifuged for 10 minutes at 2800 rpm. […]
Samples were then injected onto an HPLC MS/MS or UPLC MS/MS system. In order to control the integrity of the membrane after the dialysis process, the presence of protein was assessed in the buffer compartment. […]
Samples were analyzed in a LC-MS/MS system using an analytical method to monitor the compound to internal standard peak area ratios as representative of the compound concentrations. Alternatively, samples were analyzed by RapidFire.
Protein binding in plasma, blood, brain, and lung tissue samples were determined with the following formula: Afu=Buffer/x, wherein “x” may be plasma, blood, brain, or lung, and “Afu” is the apparent fraction unbound, and the other variables refer to the analyte/internal standard ratio determined in their specific compartment (buffer, plasma, blood, brain homogenate, and lung homogenate); Fucr-(1/D)/[(1/Afu)-1+(1/D)], wherein fucr is the fraction unbound corrected, D is the matrix dilution factor (D=1 for plasma, 2 for blood, 3 for brain, 7 for lung). % Binding=(1−fucr)×100 and % Unbound=100—% Bound. […]

[2] = In vivo pharmacokinetics and brain penetration in rats after IV administration; details: rat; for Kp at 2 h: 2 hours post-administration, read-out: brain to plasma ratio; for Vd: read-out: Vss
Protocol: Group 1: Therapeutic compounds were administered via the IV route to three rats at a target dose level of 0.5 mg/kg. Blood and brain samples were collected at 2 h after IV administration. Group 2: Therapeutic compounds were administered via the IV route to three rats (brain penetration group) at a target dose level of 0.5 mg/kg. Blood and brain samples were collected at 2 h after IV administration. Group 3: Therapeutic compounds were orally administered to three rats at a target dose level of 1 mg/kg.
All test formulations were prepared on the day of administration prior to dosing, stored at room temperature, and used as soon as possible. Formulations were prepared and administered by volume IV dosing. Actual body weights were determined on the day of dose administration, and the dose volumes were adjusted to the weight of the animal at the time of dose administration.
Blood was collected into K3 EDTA tubes at each of the following time points post-administration:
Group 1 (IV): 0.083, 0.33, 1, 2, 4, 6, 8, and 24 hours after dosing Group 2 (IV): 2 hours after dosing for terminal brain analysis
All blood samples were thoroughly and gently mixed following collection and placed on wet ice. Within 0.5 h of collection, blood was centrifuged (3000 g for 10 minutes at approximately 4° C.). Within 0.5 hours, 20 μL of each plasma sample was transferred into micronic tubes containing 80 μL of 0.1N Hepes buffer (pH 7.0-7.5). Residual plasma was transferred in micronic tubes as a second aliquot.
Brain specimens were diluted with 4 volumes of 0.1 N Hepes buffer and homogenized using the Precellys system. Blood and brain samples were assayed using an optimized method based on protein precipitation with acetonitrile followed by HPLC/MS-MS analysis. Given the unknown stability of the analytes in blood and brain, calibration standards (CS) and quality control samples (QC) were prepared in blood and brain samples on the day of dosing and stored together with study samples. It is assumed that this procedure accounted for any possible analyte degradation.
Study samples, CS, QC, and blanks were spiked with an internal standard (IS), to improve the precision of the assay. Study samples were analyzed together with CS, QC and blank samples (including double blanks). From the calibration curve, the linear range of the analytical method was determined and the lower/upper limits of quantitation were specified.
The results of blood and brain specimens were subjected to non-compartmental pharmacokinetic analysis using Phoenix WinNonlin 6.3, with the following parameters reported: Calculated concentration of test items in the corresponding formulation (expressed as mg/mL), dose levels (expressed as mg/kg) for each compound, actual collection times (expressed as hh: mM), blood concentrations (expressed as ng/ml) for each compound, brain concentrations (expressed as ng/g) for each compound, PK parameters (iv: Cmax, AUC, CLp, Vss, t1/2, if applicable; oral (PO): Cmax, tmax, AUC, F %, Fa %, Eh, AUC BB ratio, if applicable) for each compound, and abnormal clinical signs and relevant findings, if any.

[3] = brain and plasma, 0.5 mg/kg, IV
[4] = plasma, IV, 0.5 mg/kg, read-out: Clearance
[5] = plasma, IV, 0.5 mg/kg, read-out: Cmax

Compound | Rat Plasma (Fu %) [1] | Kp at 2 h [2, 3] | AUC(0-inf) ([2]; plasma, IV, 0.5 mg/kg) [ng·h/mL] | AUC(0-t) ([2]; plasma, IV, 0.5 mg/kg) [ng·h/mL] | half-life ([2]; plasma, IV, 0.5 mg/kg) [min] | clearance [2, 4] [mL/min/kg] | Cmax [2, 5] [ng/mL] | Vd ([2]; plasma, IV, 0.5 mg/kg) [L/kg] | Clast ([2]; IV, 0.5 mg/kg) [ng/mL] | Tlast ([2]; IV, 0.5 mg/kg) [h] | fraction unbound at 5 h, 0.5 μM [1] | further results
CNC(C)Cc1ccc2c(c1)OCO2 (centres unmarked) [MDMA] | >50% | – | – | – | – | – | – | – | – | – | – | AUCinf ([2]; IV, 1 mg/kg): 384 ng·h/mL; AUClast ([2]; IV, 1 mg/kg): 367 ng·h/mL; Clast ([2]; IV, 1 mg/kg): 12.1 ng/mL; Cmax ([2]; IV, 1 mg/kg): 625 ng/mL; T1/2 ([2]; IV, 1 mg/kg): 57.2 min; Tlast ([2]; IV, 1 mg/kg): 4 h; Vss ([2]; IV, 1 mg/kg): 3.02 L/kg; clearance ([2]; IV, 1 mg/kg): 45.6 mL/min/kg
COC(=O)c1ccc2c(c1)CC(N)C2 (centres unmarked) [CMP-405, 2-aminoindane-5-methylcarboxylate] | high binding in plasma specimens and Low | 2.12 | 334 | 330 | 19.8 | 25.5 | 808 | 0.602 | 8.08 | 2 | – | –
COc1ccc2c(c1)CC(N)C2 (centres unmarked) [MEAI, 5-methoxy-2-aminoindane] | – | 2.21 | 788 | 773 | 29.6 | 10.6 | 1400 | 0.376 | 24.7 | 3 | > 0.5 | Kp uu at 2 h ([2]; brain and plasma, intravenous, 0.5 mg/kg, assuming free plasma concentration equals total plasma concentration): 0.71
COc1cc2c(cc1C)CC(N)C2 (centres unmarked) [MMAI, 5-methoxy-6-methyl-2-aminoindane] | – | – | – | – | – | – | – | – | – | – | > 0.5 | –
COC(=O)c1cc2c(cc1OC)CC(N)C2 (centres unmarked) [CMP-401] | Low | – | – | – | – | – | – | – | – | – | – | –
